Data: patent US9957264B2 (Merck Sharp & Dohme Corp., priority 2013, dated 2018)

Tests used:
[1] = target: JAK2 (recombinant purified GST-tagged catalytic domain) (Homo sapiens (Human), UniProt O60674); experiment: Jak Biochemical HTRF Assay (JAK2); conditions: [ATP] 8.5 μM
[2] = target: JAK1 (recombinant purified GST-tagged catalytic domain) (Homo sapiens (Human), UniProt P23458); experiment: Jak Biochemical HTRF Assay (JAK1); conditions: [ATP] 31.8 μM
Summary of the method: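 HTRF kinase format: compounds pre-equilibrated with recombinant GST-tagged JAK1 or JAK2 catalytic domain, then ATP started a 120 min room-temperature reaction on a common peptide substrate. Phosphopeptide detected via Eu-pY20/streptavidin-Dylight 650 after EDTA quench; percent inhibition versus log concentration fitted (4-parameter) to give IC50.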

JAK1 (recombinant purified GST-tagged catalytic domain), sequence (P23458 875-1153): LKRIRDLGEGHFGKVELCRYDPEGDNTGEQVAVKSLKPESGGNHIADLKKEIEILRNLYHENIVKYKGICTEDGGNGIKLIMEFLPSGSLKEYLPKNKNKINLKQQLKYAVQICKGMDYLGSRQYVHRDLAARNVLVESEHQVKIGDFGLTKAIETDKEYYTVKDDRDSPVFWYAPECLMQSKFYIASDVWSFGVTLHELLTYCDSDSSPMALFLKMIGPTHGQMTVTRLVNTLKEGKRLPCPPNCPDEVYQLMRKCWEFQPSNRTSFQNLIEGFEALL
JAK2 (recombinant purified GST-tagged catalytic domain), sequence (O60674 849-1124): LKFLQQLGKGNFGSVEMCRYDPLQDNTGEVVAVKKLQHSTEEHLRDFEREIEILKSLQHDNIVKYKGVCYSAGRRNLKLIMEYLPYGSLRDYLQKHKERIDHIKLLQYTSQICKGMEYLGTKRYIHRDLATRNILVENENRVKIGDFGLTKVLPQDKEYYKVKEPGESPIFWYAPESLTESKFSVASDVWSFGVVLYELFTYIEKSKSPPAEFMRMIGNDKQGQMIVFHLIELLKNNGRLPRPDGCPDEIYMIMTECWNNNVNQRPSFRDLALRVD

SMILES | IC50 [1] [nM] | IC50 [2] [nM]
CCNc1nn(C2(CC#N)CCN(C(=O)OC(C)(C)C)CC2)c2cc[nH]c(=O)c12 [Example 2-1, tert-butyl 4-(cyanomethyl)-4-[3-(ethylamino)-4-oxo-4,5-dihydro-1H-pyrazolo[4,3-c]pyridin-1-yl]piperidine-1-carboxylate] | 60.3 | 48.2
N#CCC1(n2nc(Nc3ccc(C(N)C(F)(F)F)cc3)c3c(=O)[nH]ccc32)CCCC1 (single isomer, unassigned) [Example 5-88, (R or S)-2-(1-(3-((4-(1-amino-2,2,2-trifluoroethyl)phenyl)amino)-4-oxo-4,5-dihydro-1H-pyrazolo[4,3-c]pyridin-1-yl)cyclopentyl)acetonitrile] | 1.56 | 0.46
N#CC[C@@]1(n2nc(Nc3ccc(C(N4CCCC4)C(F)(F)F)cc3)c3c(=O)[nH]ccc32)CCCOC1 (single isomer, unassigned) [Example 5-198, {(3S)-3-[4-oxo-3-({4-[(1R or 1S)-2,2,2-trifluoro-1-pyrrolidin-1-ylethyl]phenyl}amino)-4,5-dihydro-1H-pyrazolo [4,3-c]pyridin-1-yl]tetrahydro-2H-pyran-3-yl}acetonitrile] | 0.39 | 0.16
CC(C)OC(=O)N1CCC(CC#N)(n2nc(Nc3ccc(S(=O)(=O)N(C)C)cc3)c3c(=O)[nH]ccc32)CC1 [Example 10-6, isopropyl 4-(cyanomethyl)-4-(3-((4-(N,N-dimethylsulfamoyl)phenyl)amino)-4-oxo-4,5-dihydro-1H-pyrazolo[4,3-c]pyridin-1-yl)piperidine-1-carboxylate] | 0.27 | 0.12
CCN(CC)S(=O)(=O)c1ccc(Nc2nn(C3(CC#N)CCCC3)c3cc[nH]c(=O)c23)cc1 [Example 5-136, 4-((1-(1-(cyanomethyl)cyclopentyl)-4-oxo-4,5-dihydro-1H-pyrazolo[4,3-c]pyridin-3-yl)amino)-N,N-diethylbenzenesulfonamide] | 1.01 | 0.56

Next, values leading:

IC50 [1] [nM] | IC50 [2] [nM] | SMILES
0.62 | 0.43 | Cc1cc(Nc2nn([C@]3(CC#N)CCCOC3)c3cc[nH]c(=O)c23)ccc1C(=O)N1CCCC[C@@H]1C [Example 20-2, 2-((S)-3-(3-((3-methyl-4-((S)-2-methylpiperidine-1-carbonyl)phenyl)amino)-4-oxo-4,5-dihydro-1H-pyrazolo[4,3-c]pyridin-1-yl)tetrahydro-2H-pyran-3-yl)acetonitrile]
0.64 | 0.71 | CC(C)(C)OC(=O)N1CCC(CC#N)(n2nc(Nc3ccc([C@]4(C(F)(F)F)CCCCN4)cc3)c3c(=O)[nH]ccc32)CC1 (single isomer, unassigned) [Example 21-16, (S or R)-tert-butyl 4-(cyanomethyl)-4-(4-oxo-3-(4-(2-(trifluoromethyl)piperidin-2-yl)phenylamino)-4,5-dihydropyrazolo[4,3-c]pyridin-1-yl)piperidine-1-carboxylate]
0.06 | 0.04 | CC(C)(C)N1Cc2cc(Nc3nn([C@]4(CC#N)CCOC[C@@H]4F)c4cc[nH]c(=O)c34)ccc2S1(=O)=O (single isomer, unassigned) [Example 5-256, 2-((3R,4R or 3S,4S)-4-(3-((2-(tert-butyl)-1,1-dioxido-2,3-dihydrobenzo[d]isothiazol-5-yl)amino)-4-oxo-4,5-dihydro-1H-pyrazolo[4,3-c]pyridin-1-yl)-3-fluorotetrahydro-2H-pyran-4-yl)acetonitrile]
0.06 | 0.04 | CC(C)OC(=O)[C@@H]1CC[C@@](CC#N)(n2nc(Nc3ccc4c(c3)CN(C(C)(C)C)S4(=O)=O)c3c(=O)[nH]ccc32)CO1 [Example 19-3, (2S,5S)-isopropyl 5-(3-((2-(tert-butyl)-1,1-dioxido-2,3-dihydrobenzo[d]isothiazol-5-yl)amino)-4-oxo-4,5-dihydro-1H-pyrazolo[4,3-c]pyridin-1-yl)-5-(cyanomethyl)tetrahydro-2H-pyran-2-carboxylate]
6.85 | 0.83 | CC(C)(C)N1Cc2cc(Nc3nn([C@]4(CC#N)CC[C@H](N5CC(F)C5)CC4)c4cc[nH]c(=O)c34)ccc2S1(=O)=O [Example 18-36]
